According to the supplement of paper PMC10949913:

Key:
Assay in all cases: area under concentration-response curve (viability) (AUC (a.u.)); higher = less active
Settings in all cases: 48 h
NCI-H295R = system: NCI-H295R
Summary of the method: (§1)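 AC50 and area under the curve values derive from fitted concentration-response curves, restricted to inhibitory or non-responding curve classes. The curves came from three adrenocortical carcinoma cell lines in 1,536-well plates, each receiving 23 nL of every library compound at 11 concentrations. Viability was read by CellTiter-Glo luminescence after 48 h, normalised per plate to vehicle and empty-well controls.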

CU-ACC2 = system: CU-ACC2
Summary of the method: as §1

CU-ACC1 = system: CU-ACC1
Summary of the method: as §1

SMILES: CCn1c(-c2nonc2N)nc2cnc(Oc3cccc(NC(=O)c4ccc(OCCN5CCOCC5)cc4)c3)cc21
- area under concentration-response curve (NCI-H295R): 511
- area under concentration-response curve (CU-ACC2): 547
- area under concentration-response curve (CU-ACC1): 494

SMILES: CCOC(=O)[C@H]1O[C@@H]1C(=O)N[C@@H](CC(C)C)C(=O)NCCC(C)C
- area under concentration-response curve (NCI-H295R): 527
- area under concentration-response curve (CU-ACC2): 589
- area under concentration-response curve (CU-ACC1): 566

SMILES: CO[C@H]1/C=C/O[C@@]2(C)Oc3c(C)c(O)c4c(c3C2=O)C2=NC3(CCN(CC(C)C)CC3)NC2=C(NC(=O)/C(C)=C/C=C/[C@H](C)[C@H](O)[C@@H](C)[C@@H](O)[C@@H](C)[C@H](OC(C)=O)[C@@H]1C)C4=O
- area under concentration-response curve (NCI-H295R): 530
- area under concentration-response curve (CU-ACC2): 607
- area under concentration-response curve (CU-ACC1): 491

SMILES: CN(CCOc1ccc(N[S+](C)(=O)[O-])cc1)CCc1ccc(N[S+](C)(=O)[O-])cc1
- area under concentration-response curve (NCI-H295R): 586
- area under concentration-response curve (CU-ACC2): 637
- area under concentration-response curve (CU-ACC1): 541

SMILES: O=C1NNc2nc(CN3Cc4ccccc4C3)nc3cccc1c23
- area under concentration-response curve (NCI-H295R): 526
- area under concentration-response curve (CU-ACC2): 600
- area under concentration-response curve (CU-ACC1): 537

SMILES: COc1ccc([C@@H]2CC(=O)c3c(O)cc(O[C@@H]4O[C@H](CO[C@@H]5O[C@@H](C)[C@H](O)[C@@H](O)[C@H]5O)[C@@H](O)[C@H](O)[C@H]4O)cc3O2)cc1O
- area under concentration-response curve (NCI-H295R): 547
- area under concentration-response curve (CU-ACC2): 593
- area under concentration-response curve (CU-ACC1): 480

SMILES: Clc1cccc(-c2ccc(-c3nnc(CCCc4ccc5cccnc5n4)o3)cc2)c1
- area under concentration-response curve (NCI-H295R): 594
- area under concentration-response curve (CU-ACC2): 627
- area under concentration-response curve (CU-ACC1): 547

SMILES: C[N+](C)([O-])CCNc1ccc(NCC[N+](C)(C)[O-])c2c1C(=O)c1c(O)ccc(O)c1C2=O
- area under concentration-response curve (NCI-H295R): 496
- area under concentration-response curve (CU-ACC2): 540
- area under concentration-response curve (CU-ACC1): 505

SMILES: CCC(=O)NC[C@H](Cc1ccc(OCCc2nc(-c3ccccc3)oc2C)cc1)N/C(C)=C\C(=O)c1ccc(C(F)(F)F)cc1
- area under concentration-response curve (NCI-H295R): 487
- area under concentration-response curve (CU-ACC2): 548
- area under concentration-response curve (CU-ACC1): 498

SMILES: N[C@@H](Cc1ccc(O)c(O)c1)C(=O)O
- area under concentration-response curve (NCI-H295R): 534
- area under concentration-response curve (CU-ACC2): 612
- area under concentration-response curve (CU-ACC1): 503

SMILES: COC1=CC(=C2C(=O)N\C(=N/C2=C1)C3=CC(=C(OCCO)C(=C3)C)C)OC
- area under concentration-response curve (NCI-H295R): 541
- area under concentration-response curve (CU-ACC2): 532
- area under concentration-response curve (CU-ACC1): 532

SMILES: C\C1=N\N(C(=O)C1)C2=CC=CC=C2
- area under concentration-response curve (NCI-H295R): 478
- area under concentration-response curve (CU-ACC2): 585
- area under concentration-response curve (CU-ACC1): 492

SMILES: Cc1cc(SCc2sc(-c3ccc(C(F)(F)F)c(F)c3)nc2C)ccc1OCC(=O)O
- area under concentration-response curve (NCI-H295R): 565
- area under concentration-response curve (CU-ACC2): 493
- area under concentration-response curve (CU-ACC1): 539

SMILES: COC/1=C/C=C2\C(=C/C1=O)[C@H](CCC3=CC(=C(OC)C(=C23)OC)OC)NC(C)=O
- area under concentration-response curve (NCI-H295R): 480
- area under concentration-response curve (CU-ACC2): 548
- area under concentration-response curve (CU-ACC1): 536

SMILES: CN(C)CC/C=C1/c2ccccc2COc2ccc(CC(=O)O)cc21
- area under concentration-response curve (NCI-H295R): 509
- area under concentration-response curve (CU-ACC2): 570
- area under concentration-response curve (CU-ACC1): 467

SMILES: CCCCNc1cc(C(=O)O)cc([S+](N)(=O)[O-])c1Oc1ccccc1
- area under concentration-response curve (NCI-H295R): 553
- area under concentration-response curve (CU-ACC2): 596
- area under concentration-response curve (CU-ACC1): 505

SMILES: C[C@@H]1[C@H]\2[C@H](O)[C@H]3[C@H](N(C)C)\C(=C(C(N)=O)/C(=O)[C@@]3(O)\C(=C2C(=O)C4=C(O)C=CC=C14)O)O
- area under concentration-response curve (NCI-H295R): 403
- area under concentration-response curve (CU-ACC2): 325
- area under concentration-response curve (CU-ACC1): 406

SMILES: COCCNCCCn1c(C(=O)CF)c(-c2ccc(C)cc2)c2c(N)ncnc21
- area under concentration-response curve (NCI-H295R): 581
- area under concentration-response curve (CU-ACC2): 655
- area under concentration-response curve (CU-ACC1): 537

SMILES: N[S+](=O)([O-])c1cc2c(cc1Cl)NCN[S+]2(=O)[O-]
- area under concentration-response curve (NCI-H295R): 430
- area under concentration-response curve (CU-ACC2): 563
- area under concentration-response curve (CU-ACC1): 480

SMILES: CC(C)Oc1ccc(-c2nc(-c3cccc4c3CC[C@@H]4NCCO)no2)cc1C#N
- area under concentration-response curve (NCI-H295R): 481
- area under concentration-response curve (CU-ACC2): 502
- area under concentration-response curve (CU-ACC1): 370

SMILES: O=C(O)c1ccc(CCCc2ccc(OCCc3ccc(F)cc3)cc2)o1
- area under concentration-response curve (NCI-H295R): 548
- area under concentration-response curve (CU-ACC2): 616
- area under concentration-response curve (CU-ACC1): 536

SMILES: CC(NCCc1ccc(O)cc1)C(O)c1ccc(O)cc1 (stereo not given)
- area under concentration-response curve (NCI-H295R): 496
- area under concentration-response curve (CU-ACC2): 592
- area under concentration-response curve (CU-ACC1): 523

SMILES: Cc1cc2c(cc1C1(c3ccc(C(=O)O)cn3)CC1)C(C)(C)CCC2(C)C
- area under concentration-response curve (NCI-H295R): 514
- area under concentration-response curve (CU-ACC2): 598
- area under concentration-response curve (CU-ACC1): 504

SMILES: CCOC(=O)C(C)(C)Oc1ccc(Cl)cc1
- area under concentration-response curve (NCI-H295R): 444
- area under concentration-response curve (CU-ACC2): 453
- area under concentration-response curve (CU-ACC1): 451

SMILES: O=C(/C=C/c1ccc(/C=C/C(=O)Nc2ccc(C3=NCCN3)cc2)cc1)Nc1ccc(C2=NCCN2)cc1
- area under concentration-response curve (NCI-H295R): 613
- area under concentration-response curve (CU-ACC2): 610
- area under concentration-response curve (CU-ACC1): 635

SMILES: CC(C)C[C@@H](C(=O)N[C@H](C(=O)OC1CCCC1)c1ccccc1)[C@H](O)C(=O)NO
- area under concentration-response curve (NCI-H295R): 539
- area under concentration-response curve (CU-ACC2): 551
- area under concentration-response curve (CU-ACC1): 463

SMILES: NC(=O)c1ncn([C@@H]2O[C@H](CO)[C@@H](O)[C@H]2O)c1N
- area under concentration-response curve (NCI-H295R): 545
- area under concentration-response curve (CU-ACC2): 519
- area under concentration-response curve (CU-ACC1): 418

SMILES: C[C@@H](c1ncncc1F)[C@](O)(Cn1cncn1)c1ccc(F)cc1F
- area under concentration-response curve (NCI-H295R): 475
- area under concentration-response curve (CU-ACC2): 513
- area under concentration-response curve (CU-ACC1): 409

SMILES: COCCCc1sc(-c2ccccc2)nc1C(=O)Nc1ccccc1-c1nc2cc(CN3CCCC3)cnc2s1
- area under concentration-response curve (NCI-H295R): 567
- area under concentration-response curve (CU-ACC2): 564
- area under concentration-response curve (CU-ACC1): 563

SMILES: CC(=O)[C@H]1CC[C@H]2[C@@H]3C/C=C4/C[C@@H](O)CC[C@]4(C)[C@H]3CC[C@]12C
- area under concentration-response curve (NCI-H295R): 530
- area under concentration-response curve (CU-ACC2): 627
- area under concentration-response curve (CU-ACC1): 517

SMILES: COc1ccc(/C=C\c2cc(OC)c(OC)c(OC)c2)cc1NC(=O)[C@H](N)CO
- area under concentration-response curve (NCI-H295R): 521
- area under concentration-response curve (CU-ACC2): 594
- area under concentration-response curve (CU-ACC1): 542

SMILES: NCC[S+](=O)([O-])O
- area under concentration-response curve (NCI-H295R): 488
- area under concentration-response curve (CU-ACC2): 585
- area under concentration-response curve (CU-ACC1): 495

SMILES: CC(=O)Nc1ccc(O)cc1
- area under concentration-response curve (NCI-H295R): 445
- area under concentration-response curve (CU-ACC2): 467
- area under concentration-response curve (CU-ACC1): 348

SMILES: OC1=CC2=C(C(=C1)O)C(=O)\C(=C(/O2)C3=CC(=C(O)C(=C3)O)O)O
- area under concentration-response curve (NCI-H295R): 508
- area under concentration-response curve (CU-ACC2): 600
- area under concentration-response curve (CU-ACC1): 553

SMILES: CN(C)C1=CC(=CC=C1)C\2=C\3C(=O)N(NC3=C/C(=O)N2C)C4=CC=CC=C4Cl
- area under concentration-response curve (NCI-H295R): 533
- area under concentration-response curve (CU-ACC2): 512
- area under concentration-response curve (CU-ACC1): 513
